Some results are limits rather than exact numbers.

The source of these data is patent publication US20240140938A1, “PREPARATION OF TETRAHYDROINDAZOLE DERIVATIVES AS NOVEL DIACYLGLYCERIDE O-ACYLTRANSFERASE 2 INHIBITORS” (MERCK SHARP & DOHME LLC, priority 2020, published 2024).

human DGAT2 (hDGAT2), sequence (Q96PD7 whole entry): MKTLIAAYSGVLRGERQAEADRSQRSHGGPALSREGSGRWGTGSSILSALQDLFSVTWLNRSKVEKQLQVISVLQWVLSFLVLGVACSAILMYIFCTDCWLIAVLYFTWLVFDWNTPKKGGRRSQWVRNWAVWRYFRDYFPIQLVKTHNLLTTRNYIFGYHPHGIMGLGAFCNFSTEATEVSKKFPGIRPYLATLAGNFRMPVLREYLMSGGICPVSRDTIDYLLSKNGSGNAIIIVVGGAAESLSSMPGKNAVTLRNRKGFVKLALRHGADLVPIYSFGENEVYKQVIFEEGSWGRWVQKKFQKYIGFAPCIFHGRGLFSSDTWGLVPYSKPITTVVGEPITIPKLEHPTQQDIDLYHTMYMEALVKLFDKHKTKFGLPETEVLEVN

This experiment concerns the target human DGAT2 (hDGAT2) (Homo sapiens (Human), UniProt Q96PD7). Description: DGAT2 Enzymatic Activity Assay. The experiment is classed as biochemical. Particulars: hDGAT2 Sf-9 membrane prep; 13C18-triolein product by LC/MS/MS; 25 μM diolein, 5 μM 13C oleoyl-CoA. In outline: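 Enzyme source was membrane fractions from Sf-9 cells infected with untagged hDGAT2 baculovirus. Reactions ran at room temperature, and product 13C18-triolein was quantified by LC/MS/MS against a 13C21-triolein internal standard. % inhibition was normalised to high and low controls, and IC50 derived from it.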
In general, IC50 refers to the concentration that gives 50% inhibition. Molecule `CC(C)n1nc(-c2cncc(OC(F)F)c2)c2c1C[C@H](C(=O)N[C@@H](C)CN1CCO[C@H](C)C1)CC2` [Example 68, (R)-3-(5-(difluoromethoxy)pyridin-3-yl)-1-isopropyl-N-((S)-1-((R)-2-methylmorpholino)propan-2-yl)-4,5,6,7-tetrahydro-1H-indazole-6-carboxamide] came in with a concentration for half-maximal inhibition (IC50) above 10000 nM.

In turn, `CCOc1cc(-c2nn(C(C)C(F)(F)F)c3c2CC[C@@H](C(=O)NC2(C)CCS(=O)(=O)CC2)C3)c(F)cn1` (single isomer, unassigned) [Example 53b] yielded an IC50 of 10.3 nM. To `CCNS(=O)(=O)c1cccc(-c2nn(C(C)C)c3c2CC[C@@H](C(=O)NC2(C)CS(=O)(=O)C2)C3)c1` [Example 99, (R)-3-(3-(N-ethylsulfamoyl)phenyl)-1-isopropyl-N-(3-methyl-1,1-dioxidothietan-3-yl)-4,5,6,7-tetrahydro-1H-indazole-6-carboxamide] belongs above 10000 nM; to `CC(C)n1nc(-c2cccc(OC(F)F)c2)c2c1C[C@H](C(=O)NCCN1CCS(=O)(=O)CC1)CC2` [Example 70, (R)-3-(3-(difluoromethoxy)phenyl)-N-(2-(1,1-dioxidothiomorpholino)ethyl)-1-isopropyl-4,5,6,7-tetrahydro-1H-indazole-6-carboxamide], 18000 nM.

`C[C@]1(NC(=O)[C@@H]2CCc3c(-c4cncc(OC(F)F)n4)nn(-c4ccc(F)cn4)c3C2)CCS(=O)(=O)C1` [Example 19, (R)-3-(6-(difluoromethoxy)pyrazin-2-yl)-1-(5-fluoropyridin-2-yl)-N-((S)-3-methyl-1,1-dioxidotetrahydrothiophen-3-yl)-4,5,6,7-tetrahydro-1H-indazole-6-carboxamide] gave a concentration for half-maximal inhibition (IC50) above 10000 nM.

On to `CCOc1cc(-c2nn(C(C)C(C)(C)O)c3c2CC[C@@H](C(=O)N[C@@]2(C)CCS(=O)(=O)C2)C3)c(F)cn1` (single isomer, unassigned) [Example 108a], for which 44.1 nM corresponded to half-maximal inhibition (IC50).

For `CC(C)n1nc(-c2cccc(OC(F)F)c2)c2c1CC(C(=O)NC1(C)CS(=O)(=O)C1)OC2` (single isomer, unassigned) [EX-134a, 3-(3-(difluoromethoxy)phenyl)-1-isopropyl-N-(3-methyl-1,1-dioxidothietan-3-yl)-1,4,6,7-tetrahydropyrano[4,3-c]pyrazole-6-carboxamide], the IC50 was above 10000 nM.

As for `CC(C)NC(=O)N1CCC(C)(NC(=O)[C@@H]2CCc3c(-c4cc(OC(F)F)ccc4F)nn(C(C)C)c3C2)C1` (stereo partly drawn) [Example 60, (6R)-3-(5-(difluoromethoxy)-2-fluorophenyl)-1-isopropyl-N-(1-(isopropylcarbamoyl)-3-methylpyrrolidin-3-yl)-4,5,6,7-tetrahydro-1H-indazole-6-carboxamide], half-maximal inhibition (IC50) required 29.2 nM. `CC(C)n1nc(-c2cc(OCC(F)(F)F)ncc2F)c2c1C[C@H](C(=O)NC1(C)CS(=O)(=O)C1)CC2` [Example 43, (R)-3-(5-fluoro-2-(2,2,2-trifluoroethoxy)pyridin-4-yl)-1-isopropyl-N-(3-methyl-1,1-dioxidothietan-3-yl)-4,5,6,7-tetrahydro-1H-indazole-6-carboxamide] gave an IC50 of 14.1 nM.

Consider `CC(C)n1nc(-c2cncc(OC(F)(F)C(F)F)c2)c2c1C[C@H](C(=O)NC1(C)CCS(=O)(=O)CC1)CC2` [Example 106, (R)-1-isopropyl-N-(4-methyl-1,1-dioxidotetrahydro-2H-thiopyran-4-yl)-3-(5-(1,1,2,2-tetrafluoroethoxy)pyridin-3-yl)-4,5,6,7-tetrahydro-1H-indazole-6-carboxamide], for which half-maximal inhibition (IC50) was put at 204 nM. To `CC(n1nc(-c2cc(OCC(F)(F)F)ncc2F)c2c1C[C@H](C(=O)N[C@@]1(C)CCS(=O)(=O)C1)CC2)C(C)(C)O` (single isomer, unassigned) [Example 112b] belongs 31.6 nM; to `C[C@]1(NC(=O)[C@@H]2CCc3c(-c4cccc(OC(F)F)c4)nn(-c4ccc(F)cn4)c3C2)CCS(=O)(=O)C1` [Example 3, (R)-3-(3-(difluoromethoxy)phenyl)-1-(5-fluoropyridin-2-yl)-N-((S)-3-methyl-1,1-dioxidotetrahydrothiophen-3-yl)-4,5,6,7-tetrahydro-1H-indazole-6-carboxamide], 4.9 nM; to `CC(C)n1nc(-c2cc(OC(F)F)ccc2F)c2c1CC(C(=O)NC1(C)CS(=O)(=O)C1)CO2` (racemic) [Example 121, 3-(5-(difluoromethoxy)-2-fluorophenyl)-1-isopropyl-N-(3-methyl-1,1-dioxidothietan-3-yl)-1,5,6,7-tetrahydropyrano[3,2-c]pyrazole-6-carboxamide], 21.5 nM.

With `CCOc1cc(-c2nn(C(C)C)c3c2CC[C@@H](C(=O)NC2(C)CCS(=O)(=O)CC2)C3)c(Cl)cn1` [Example 39, (R)-3-(5-chloro-2-ethoxypyridin-4-yl)-1-isopropyl-N-(4-methyl-1,1-dioxidotetrahydro-2H-thiopyran-4-yl)-4,5,6,7-tetrahydro-1H-indazole-6-carboxamide], the IC50 turned out to be 7.7 nM.

With `CC(C)n1nc(-c2cc(OC(F)F)ccc2F)c2c1C[C@H](C(=O)NC1(C)CS(=O)(=O)C1)OC2` [Example 127, (R)-3-(5-(difluoromethoxy)-2-fluorophenyl)-1-isopropyl-N-(3-methyl-1,1-dioxidothietan-3-yl)-1,4,6,7-tetrahydropyrano[4,3-c]pyrazole-6-carboxamide], the IC50 stood at 343 nM.

On to `CC(C)n1nc(-c2cncc(OC(F)F)c2)c2c1C[C@H](C(=O)NC1(C)CCS(=O)(=O)CC1)CC2` [Example 56, (R)-3-(5-(difluoromethoxy)pyridin-3-yl)-1-isopropyl-N-(4-methyl-1,1-dioxidotetrahydro-2H-thiopyran-4-yl)-4,5,6,7-tetrahydro-1H-indazole-6-carboxamide], for which half-maximal inhibition (IC50) was put at 414 nM. To `C[C@]1(NC(=O)[C@@H]2CCc3c(-c4ccccc4Cl)nn(-c4ccc(F)cc4)c3C2)CCS(=O)(=O)C1` (single isomer, unassigned) [Example 1b] belongs 33.7 nM; to `COCC(C)(C)NC(=O)[C@@H]1CCc2c(-c3cccc(OC(F)F)c3)nn(C(C)C)c2C1` [Example 66, (R)-3-(3-(difluoromethoxy)phenyl)-1-isopropyl-N-(1-methoxy-2-methylpropan-2-yl)-4,5,6,7-tetrahydro-1H-indazole-6-carboxamide], 1330 nM.

In turn, `C[C@]1(NC(=O)[C@@H]2CCc3c(-c4cccc(C5CC(F)(F)C5)c4)nn(-c4ccc(F)cc4)c3C2)CCS(=O)(=O)C1` [Example 13, (R)-3-(3-(3,3-difluorocyclobutyl)phenyl)-1-(4-fluorophenyl)-N-((S)-3-methyl-1,1-dioxidotetrahydrothiophen-3-yl)-4,5,6,7-tetrahydro-1H-indazole-6-carboxamide] returned an IC50 of 20 nM.

In turn, `CCOc1cc(-c2nn(C(C)C(C)(C)O)c3c2CC[C@@H](C(=O)NC2(C)CCS(=O)(=O)CC2)C3)c(F)cn1` (single isomer, unassigned) [Example 109a] yielded a concentration for half-maximal inhibition (IC50) of 49.5 nM. To `O=C(NC1(CO)CCC(F)(F)C1)[C@@H]1CCc2c(-c3cccc(OC(F)F)c3)nn(-c3ccc(F)cn3)c2C1` (single isomer, unassigned) [Example 8b] belongs 35 nM. To `CC1(NC(=O)[C@@H]2CCc3c(-c4cc(OC(F)F)ccc4F)nn(C4CCCC4O)c3C2)CS(=O)(=O)C1` (single isomer, unassigned) [Example 114b] belongs 129 nM.

Molecule `CCOc1cc(-c2nn(C(C)C(C)(C)O)c3c2CC[C@@H](C(=O)NC2(C)CCS(=O)(=O)CC2)C3)c(F)cn1` (single isomer, unassigned) [Example 109b] registered an IC50 of 30.7 nM.

With `CCc1ccc(F)c(-c2nn(C(C)C)c3c2CC[C@@H](C(=O)NC2(C)CS(=O)(=O)C2)C3)c1` [Example 100, (R)-3-(5-ethyl-2-fluorophenyl)-1-isopropyl-N-(3-methyl-1,1-dioxidothietan-3-yl)-4,5,6,7-tetrahydro-1H-indazole-6-carboxamide], half-maximal inhibition (IC50) was put at 158 nM. The molecule `Cc1nnc(NC(=O)[C@@H]2CCc3c(-c4cccc(OC(F)F)c4)nn(C4CCOCC4)c3C2)s1` [Example 67, (R)-3-(3-(difluoromethoxy)phenyl)-N-(5-methyl-1,3,4-thiadiazol-2-yl)-1-(tetrahydro-2H-pyran-4-yl)-4,5,6,7-tetrahydro-1H-indazole-6-carboxamide] showed an IC50 above 10000 nM. In the case of `CC(C)n1nc(-c2cc(OC(F)F)ccc2F)c2c1C[C@H](C(=O)NC1(C#N)CCS(=O)(=O)CC1)CC2` [Example 52, (R)-N-(4-cyano-1,1-dioxidotetrahydro-2H-thiopyran-4-yl)-3-(5-(difluoromethoxy)-2-fluorophenyl)-1-isopropyl-4,5,6,7-tetrahydro-1H-indazole-6-carboxamide], half-maximal inhibition (IC50) was put at 4.7 nM. To `CC(C)n1nc(-c2cc(OC(F)F)ccc2F)c2c1C[C@H](C(=O)N[C@]1(C)CCS(=O)(=O)C1)CC2` [Example 29, (R)-3-(5-(difluoromethoxy)-2-fluorophenyl)-1-isopropyl-N-((R)-3-methyl-1,1-dioxidotetrahydrothiophen-3-yl)-4,5,6,7-tetrahydro-1H-indazole-6-carboxamide] belongs 60.1 nM; to `CC(C#N)n1nc(-c2cc(OC(F)F)ccc2F)c2c1C[C@H](C(=O)NC1(C)CS(=O)(=O)C1)CC2` (stereo partly drawn) [Example 79, (6R)-1-(1-cyanoethyl)-3-(5-(difluoromethoxy)-2-fluorophenyl)-N-(3-methyl-1,1-dioxidothietan-3-yl)-4,5,6,7-tetrahydro-1H-indazole-6-carboxamide], 59.1 nM.

Molecule `CC(n1nc(-c2cc(OCC(F)(F)F)ncc2F)c2c1C[C@H](C(=O)NC1(C#N)CCS(=O)(=O)CC1)CC2)C(C)(C)O` (single isomer, unassigned) [Example 113a] returned an IC50 of 27.8 nM.
